Measured values taken from PubChem BioAssay (NCI).
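96-well plates; 48 h exposure; 5 concentrations. Endpoints by linear interpolation between flanking doses. Not reached: highest tested concentration assigned. Here, GI50 denotes the concentration required for 50% inhibition of growth. TGI marks complete inhibition of growth.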

Assays:
Assay in all cases: NCI-60 cell line screen, 48 h
M19-MEL melanoma = system: M19-MEL melanoma
LXFL 529 NSCLC = system: LXFL 529 NSCLC
NCI-H522 lung = system: NCI-H522 lung
HOP-18 NSCLC = system: HOP-18 NSCLC
KM12 colon = system: KM12 colon
XF 498 CNS = system: XF 498 CNS
DMS 273 small cell lung = system: DMS 273 small cell lung
DMS 114 small cell lung = system: DMS 114 small cell lung
RXF-631 renal = system: RXF-631 renal
SNB-78 CNS = system: SNB-78 CNS
RXF 393 renal = system: RXF 393 renal
BT-549 breast = system: BT-549 breast
MCF7 breast = system: MCF7 breast
T-47D breast = system: T-47D breast

Compound | TGI (M19-MEL melanoma) | TGI (LXFL 529 NSCLC) | TGI (NCI-H522 lung) | TGI (HOP-18 NSCLC) | TGI (KM12 colon) | TGI (XF 498 CNS) | TGI (DMS 273 small cell lung) | TGI (DMS 114 small cell lung) | TGI (RXF-631 renal) | TGI (SNB-78 CNS) | TGI (RXF 393 renal) | GI50 (RXF 393 renal) | GI50 (NCI-H522 lung) | TGI (BT-549 breast) | TGI (MCF7 breast) | GI50 (T-47D breast) | TGI (T-47D breast)
COC(=O)c1oc([N+](=O)[O-])c(-c2ccccc2)c1-c1ccccc1 | > 100 µM | > 100 µM | > 100 µM | > 100 µM | > 100 µM | > 100 µM | > 100 µM | > 100 µM | > 100 µM | > 100 µM |  |  |  |  |  |  | 
Cc1cc2c(cc1C)[n+](=O)c(C(=O)CC(=O)C(=O)Nc1ccccc1C)c(C)n2[O-] | > 100 µM | > 100 µM | > 100 µM | > 100 µM | > 100 µM |  | > 100 µM |  | > 100 µM | > 100 µM | > 100 µM |  |  |  |  |  | 
CCOC(=O)c1sc(Nc2cc(Cl)ccc2Cl)nc1C | > 100 µM | > 100 µM | > 100 µM | > 100 µM | > 100 µM | > 100 µM |  | > 100 µM | > 100 µM | > 100 µM | > 100 µM |  |  |  |  |  | 
CC(=O)OC1C(COC(N)=O)OC(n2c(-c3ccc(C)cc3)cc(-c3ccccc3)c(C#N)c2=O)C(OC(C)=O)C1OC(C)=O (configuration not stated) | > 100 µM | > 100 µM | > 100 µM | > 100 µM | > 100 µM |  | > 100 µM |  | > 100 µM | > 100 µM | > 100 µM |  |  |  |  |  | 
CC[C@@]1(O)C(=O)OCc2c1cc1n(c2=O)Cc2cc3c(OC)cccc3nc2-1 | 0.643 µM | > 23.1 µM | 2.12 µM | > 100 µM | 5.86 µM | 0.876 µM | 1.14 µM | 0.28 µM | 1.45 µM |  |  | 0.0413 nM | 0.028 µM | > 39.8 µM | > 100 µM | > 100 µM | > 100 µM
c1ccc2c(CNCCCN3CCN(CCCNCc4cccc5ccccc45)CC3)cccc2c1 | 3.37 µM | 3.17 µM | 2.99 µM | 18.7 µM | 3.7 µM | 3.17 µM | 3.43 µM | 3.46 µM | 2.41 µM | 4.59 µM | 2.4 µM |  |  |  |  |  | 
CC1=CC=C2C(C)(C)CC[C@@H]3OC(=O)[C@H]1[C@]23C | > 100 µM | > 100 µM | > 100 µM | > 100 µM | > 100 µM | > 100 µM | > 100 µM | > 100 µM | > 100 µM | > 100 µM | > 100 µM |  |  |  |  |  | 
CCCCN(CCCC)C(=O)C(=O)C(C(=O)C(=O)OC)c1nc2ccccc2o1 (configuration not stated) | > 100 µM | > 100 µM | > 100 µM | > 100 µM | > 100 µM | > 100 µM | > 100 µM | > 100 µM | > 100 µM | > 100 µM | 99 µM |  |  |  |  |  | 
COc1cc(/C=C(\C)c2ccc3c(c2)OCO3)cc(OC)c1OC | > 100 µM | 96 µM | 69 µM | > 100 µM | > 100 µM |  | 96.3 µM | 87 µM | > 100 µM | > 100 µM | 99.5 µM |  |  |  |  |  | 
CCC(CO)COC(=O)/C=C/C(=O)OCC(CC)CO (configuration not stated) | > 100 µM | > 100 µM | > 100 µM | > 100 µM | > 100 µM | > 100 µM | > 100 µM | > 100 µM | > 100 µM | > 100 µM | > 100 µM |  |  |  |  |  | 
S=c1sc2sc(=S)sc2s1 | 75.6 µM | 26.9 µM | > 100 µM | > 100 µM | > 100 µM |  | > 100 µM |  | 39.1 µM | > 100 µM | > 100 µM |  |  |  |  |  | 
S=C1NC(c2ccccc2)=NC(Cc2ccccc2)(c2ccccc2)N1c1ccccc1 (configuration not stated) | > 100 µM | > 100 µM |  | > 100 µM | > 100 µM |  |  | > 100 µM | > 100 µM | > 100 µM | > 100 µM |  |  |  |  |  | 
COC(=O)CCC(=O)C(CC(=O)OC)C(=O)CCC(=O)NCCc1ccccc1 (configuration not stated) |  | > 100 µM | > 100 µM | > 100 µM | > 100 µM |  | > 100 µM |  | > 100 µM | > 100 µM | > 100 µM |  |  |  |  |  | 
COC(=O)C(=O)C(C(=O)C(=O)Nc1ccccc1C(N)=O)c1nc2ccc([N+](=O)[O-])cc2[nH]c1=O (configuration not stated) | > 100 µM | > 100 µM | > 100 µM | > 100 µM | > 100 µM | > 100 µM | > 100 µM |  | > 100 µM | > 100 µM | > 100 µM |  |  |  |  |  | 
N#CCC(=O)N/N=C(/C(=O)Nc1ccccc1)C1C(=O)N(c2ccccc2)N=C1N (configuration not stated) | > 100 µM | > 100 µM | > 100 µM | > 100 µM | > 100 µM | > 100 µM | > 100 µM | > 100 µM | > 100 µM | > 100 µM | > 100 µM |  |  |  |  |  | 
Cc1ccccc1C(C#N)/C(=N/NC(N)=S)C(=O)Nc1c(C)cccc1C (configuration not stated) | > 100 µM | > 100 µM |  | > 100 µM | > 100 µM | > 100 µM |  | > 100 µM | > 100 µM | > 100 µM | > 100 µM |  |  |  |  |  | 
